Measured values reported in ChEMBL document CHEMBL1142603, “Manzamine B and E and ircinal A related alkaloids from an Indonesian Acanthostrongylophora sponge and their activity against infectious, tropical parasitic, and Alzheimer's diseases” (J Nat Prod, 2006).
Converted amounts (≈) assume the structure as drawn. The source made the active and inactive calls. The rule behind the calls is not given here.

Columns and labels:
[1] = tested on: Mycobacterium intracellulare; assay: Antibacterial activity against Mycobacterium intracellular by alamar blue assay; type: functional, organism-based
Cryptococcus neoformans = assay: Antifungal activity against Cryptococcus neoformans; type: functional, organism-based
[2] = molecular target: T1, Acetylcholinesterase (Bos taurus) (UniProt P23795); assay: Inhibition of bovine AChE
T1 sequence (whole entry): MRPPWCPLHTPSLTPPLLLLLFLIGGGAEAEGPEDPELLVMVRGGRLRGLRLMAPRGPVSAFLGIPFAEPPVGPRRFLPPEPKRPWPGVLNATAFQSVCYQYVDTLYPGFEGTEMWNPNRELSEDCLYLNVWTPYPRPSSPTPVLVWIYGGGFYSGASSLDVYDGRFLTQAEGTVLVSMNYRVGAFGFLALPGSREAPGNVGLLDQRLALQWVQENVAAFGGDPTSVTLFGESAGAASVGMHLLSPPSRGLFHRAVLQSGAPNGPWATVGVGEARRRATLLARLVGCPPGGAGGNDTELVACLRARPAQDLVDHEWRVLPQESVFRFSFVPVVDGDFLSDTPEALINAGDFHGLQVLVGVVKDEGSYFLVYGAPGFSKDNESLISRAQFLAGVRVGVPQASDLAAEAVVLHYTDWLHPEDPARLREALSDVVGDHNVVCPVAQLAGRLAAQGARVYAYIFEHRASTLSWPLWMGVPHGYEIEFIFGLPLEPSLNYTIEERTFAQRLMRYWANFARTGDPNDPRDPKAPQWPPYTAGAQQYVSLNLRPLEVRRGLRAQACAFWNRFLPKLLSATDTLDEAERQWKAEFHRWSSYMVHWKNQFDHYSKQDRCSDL

Staphylococcus aureus [3] = assay: Antibacterial activity against Staphylococcus aureus; type: functional, organism-based
[4] = tested on: Human immunodeficiency virus 1; assay: Antiviral activity against HIV1 3B assessed as reverse transcriptase activity by enzyme immunoassay; type: functional, organism-based; conditions: Human immunodeficiency virus 1, 3B
Plasmodium falciparum [5] = assay: Antimalarial activity after 72 hrs against chloroquine-sensitive Plasmodium falciparum D6 in erythrocytes at […] by LDH reporter assay; type: functional, organism-based
Leishmania donovani [6] = assay: Antileishmanial activity against Leishmania donovani at 40 ug/mL after 72 hrs by alamar blue assay; type: functional, organism-based
Staphylococcus aureus [7] = assay: Antibacterial activity against methicillin-resistant Staphylococcus aureus; type: functional, organism-based
[8] = molecular target: Beta-secretase 1 (Homo sapiens) (UniProt P56817); assay: Inhibition of human recombinant BACE1 by FRET-based assay
Beta-secretase 1 (Homo sapiens), sequence (P56817 whole entry): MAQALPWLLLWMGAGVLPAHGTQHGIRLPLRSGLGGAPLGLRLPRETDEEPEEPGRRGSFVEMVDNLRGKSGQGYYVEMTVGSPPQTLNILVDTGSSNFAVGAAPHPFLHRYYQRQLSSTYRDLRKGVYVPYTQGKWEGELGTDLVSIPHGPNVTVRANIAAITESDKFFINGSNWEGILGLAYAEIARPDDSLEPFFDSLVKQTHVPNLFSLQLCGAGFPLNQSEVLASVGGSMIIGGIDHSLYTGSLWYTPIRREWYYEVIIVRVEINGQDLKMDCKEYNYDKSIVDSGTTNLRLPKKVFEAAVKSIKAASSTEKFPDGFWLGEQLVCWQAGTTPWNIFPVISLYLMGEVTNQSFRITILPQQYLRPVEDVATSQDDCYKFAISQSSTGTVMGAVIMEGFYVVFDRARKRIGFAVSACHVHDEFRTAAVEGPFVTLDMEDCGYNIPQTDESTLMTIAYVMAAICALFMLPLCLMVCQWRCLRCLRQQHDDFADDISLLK

Vero [9] = assay: Cytotoxicity against african green monkey Vero cells at 4.76 ug/mL by neutral red assay; type: cell-based; conditions: chlorocebus sabaeus
Plasmodium falciparum [10] = assay: Antimalarial activity after 72 hrs against chloroquine-resistant Plasmodium falciparum W2 in erythrocytes at […] by LDH reporter assay; type: functional, organism-based
Leishmania donovani [11] = assay: Antileishmanial activity against Leishmania donovani after 72 hrs by alamar blue assay; type: functional, organism-based
Vero [12] = assay: Cytotoxicity against african green monkey Vero cells by neutral red assay; type: cell-based; conditions: chlorocebus sabaeus
Plasmodium falciparum [13] = assay: Antimalarial activity after 72 hrs against chloroquine-resistant Plasmodium falciparum W2 in erythrocytes by LDH reporter assay; type: functional, organism-based; conditions: W2, 72 h
[14] = tested on: Mycobacterium tuberculosis; assay: Antituberculosis activity against Mycobacterium tuberculosis H37Rv after 24 hrs by alamar blue assay; type: functional
Plasmodium falciparum [15] = assay: Antimalarial activity after 72 hrs against chloroquine-sensitive Plasmodium falciparum D6 in erythrocytes by LDH reporter assay; type: functional, organism-based; conditions: D6, 72 h
[16] = molecular target: Glycogen synthase kinase-3 beta (Homo sapiens) (UniProt P49841); assay: Inhibition of GSK3-beta in human SH-SY5Y cells assessed as inhibition of tau phosphorylation at Ser396 at 5 uM after 24 hrs by ELISA sandwich method; type: cell-based
Glycogen synthase kinase-3 beta (Homo sapiens), sequence (P49841 whole entry, looked up): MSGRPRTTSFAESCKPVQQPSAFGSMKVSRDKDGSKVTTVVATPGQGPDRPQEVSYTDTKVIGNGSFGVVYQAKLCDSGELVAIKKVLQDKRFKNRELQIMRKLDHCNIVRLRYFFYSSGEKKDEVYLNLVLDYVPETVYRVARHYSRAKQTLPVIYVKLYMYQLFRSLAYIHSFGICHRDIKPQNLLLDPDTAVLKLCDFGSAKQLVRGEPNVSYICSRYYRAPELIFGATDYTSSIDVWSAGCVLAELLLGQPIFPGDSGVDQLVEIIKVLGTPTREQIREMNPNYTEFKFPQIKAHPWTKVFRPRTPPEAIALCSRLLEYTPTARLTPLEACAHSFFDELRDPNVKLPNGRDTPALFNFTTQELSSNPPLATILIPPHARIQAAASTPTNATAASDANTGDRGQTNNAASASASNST

SH-SY5Y = assay: Cytotoxicity against human SH-SY5Y cells at 5 uM; type: cell-based
[17] = molecular target: Glycogen synthase kinase-3 beta (Homo sapiens) (UniProt P49841); assay: Inhibition of human recombinant GSK3-beta assessed as incorporation of [33P]gammaATP into G2S peptide at 25 uM
[18] = tested on: Voltage-gated calcium channel; assay: Blocking of calcium channel in human SH-SY5Y cells assessed as inhibition of KCL depolarization-induced cytosolic calcium increase at 1 uM; type: cell-based

O=C1CCCN2[C@@H]3[C@@]45CN6CCCC/C=C\CC[C@@]3(C=C(c3nccc7c3[nH]c3ccccc37)[C@@H]4CC6)O[C@]2(CC1)C5
Activity [1]: inactive | Activity (Cryptococcus neoformans): inactive | Activity [2]: inactive | Activity (Staphylococcus aureus [3]): inactive | IC50 [4]: 17.5 mg/L (≈ 31.1 µM) | Activity (Plasmodium falciparum [5]): inactive | Activity (Leishmania donovani [6]): inactive | Activity (Staphylococcus aureus [7]): inactive | Activity [8]: inactive | Activity (Vero [9]): Non-toxic | Activity (Plasmodium falciparum [10]): inactive

O=C1CC[C@H]2C[C@]34CN5CCCC/C=C\CC[C@@]6(C=C(c7nccc8c7[nH]c7ccccc78)[C@@H]3CC5)O[C@H](CC1)N2[C@H]46
IC50 (Leishmania donovani [11]): 18 mg/L (≈ 32 µM) | IC90 (Leishmania donovani [11]): 40 mg/L (≈ 71.1 µM) | Activity [1]: inactive | Activity (Cryptococcus neoformans): inactive | Activity [2]: inactive | Activity (Staphylococcus aureus [3]): inactive | Activity (Plasmodium falciparum [5]): inactive | Activity (Staphylococcus aureus [7]): inactive | Activity [8]: inactive | Activity (Vero [9]): Non-toxic | Activity (Plasmodium falciparum [10]): inactive

O=C1CCCN2[C@@H](CC1)C[C@]13CN4CCCC/C=C\CC[C@](O)(C=C(c5nccc6c5[nH]c5ccc(O)cc56)[C@@H]1CC4)[C@H]23
IC50 (Leishmania donovani [11]): 2.5 mg/L (≈ 4.3 µM) | IC90 (Leishmania donovani [11]): 4.3 mg/L (≈ 7.4 µM) | IC50 (Vero [12]): 4.3 mg/L (≈ 7.4 µM) | IC50 (Plasmodium falciparum [13]): 0.87 mg/L (≈ 1.5 µM) | IC50 [1]: 3.5 mg/L (≈ 6.03 µM) | IC50 (Cryptococcus neoformans): 5.5 mg/L (≈ 9.47 µM) | Activity [2]: inactive | MIC [14]: 0.4 mg/L (≈ 0.689 µM) | Activity [8]: inactive | Activity (Vero [9]): Non-toxic | IC50 (Plasmodium falciparum [15]): 0.78 mg/L (≈ 1.34 µM)

O=C1CCCN2[C@@H]3[C@@]45CN6CCCC/C=C\CC[C@@]3(C=C(c3nccc7c3[nH]c3ccc(O)cc37)[C@@H]4CC6)O[C@]2(CC1)C5
Activity [1]: inactive | Activity (Cryptococcus neoformans): inactive | Activity [2]: inactive | Activity (Staphylococcus aureus [3]): inactive | Activity (Plasmodium falciparum [5]): inactive | Activity (Leishmania donovani [6]): inactive | Activity (Staphylococcus aureus [7]): inactive | Activity [8]: inactive | Activity (Vero [9]): Non-toxic | Activity (Plasmodium falciparum [10]): inactive

O=C1CCCN2[C@H]3[C@]45CN6CCCC/C=C\CC[C@]3(C=C(c3nccc7c3[nH]c3c(O)cccc37)[C@H]4CC6)O[C@]2(CC1)C5
IC50 (Plasmodium falciparum [13]): 1.1 mg/L (≈ 1.9 µM) | Activity [1]: inactive | Activity (Cryptococcus neoformans): inactive | Activity [2]: inactive | Activity (Staphylococcus aureus [3]): inactive | IC50 [4]: 14.9 mg/L (≈ 25.7 µM) | MIC [14]: 12.5 mg/L (≈ 21.6 µM) | Activity (Leishmania donovani [6]): inactive | Activity (Staphylococcus aureus [7]): inactive | Activity [8]: inactive | Activity (Vero [9]): Non-toxic | IC50 (Plasmodium falciparum [15]): 0.84 mg/L (≈ 1.45 µM)

Oc1cccc2c1[nH]c1c(C3=C[C@@]4(O)CC/C=C\CCCCN5CC[C@@H]3[C@]3(CC6/C=C\CCCCN6[C@H]34)C5)nccc12 (some centres undefined)
IC50 (Leishmania donovani [11]): 6.2 mg/L (≈ 11 µM) | IC90 (Leishmania donovani [11]): 11 mg/L (≈ 19.5 µM) | IC50 (Vero [12]): 1.1 mg/L (≈ 1.95 µM) | IC50 (Plasmodium falciparum [13]): 0.008 mg/L (≈ 0.0142 µM) | IC50 [1]: 1 mg/L (≈ 1.77 µM) | IC50 (Cryptococcus neoformans): 3 mg/L (≈ 5.31 µM) | Activity [16]: Active | Activity [2]: inactive | IC50 (Staphylococcus aureus [3]): 0.9 mg/L (≈ 1.59 µM) | IC50 [4]: 0.59 mg/L (≈ 1.04 µM) | MIC [14]: 0.9 mg/L (≈ 1.59 µM) | Activity (SH-SY5Y): Non-toxic | inhibition [17]: 86.7% | inhibition (INH) [18]: 20% | IC50 (Staphylococcus aureus [7]): 4 mg/L (≈ 7.08 µM) | Activity [8]: inactive | IC50 (Plasmodium falciparum [15]): 0.006 mg/L (≈ 0.0106 µM)

C1=C\CC[C@]23CN4CCCC/C=C\CC[C@@]5(O[C@H]5[C@@H](c5nccc6c5[nH]c5ccccc56)[C@@H]2CC4)[C@@H]3NCCCC/1
Activity [2]: inactive | Activity [8]: inactive

O=CC1=C[C@@]2(O)CC/C=C\CCCCN3CC[C@@H]1[C@]1(C[C@@H]4/C=C\CCCCN4[C@H]12)C3
inhibition [17]: 0%

O=CC1=C[C@]23CC/C=C\CCCCN4CC[C@@H]1[C@]1(C[C@@H]5/C=C\CCC[C@@H](O2)N5[C@H]13)C4
Activity [2]: inactive | Activity [8]: inactive

Oc1cccc2c1[nH]c1c([C@H]3[C@@H]4CCN5CCCC/C=C\CC[C@@]6(O[C@@H]36)[C@@H]3NCCCC/C=C\CC[C@@]34C5)nccc12
Activity [2]: inactive | Activity [8]: inactive
